Laboratory results taken from BindingDB's records for doi:10.1007/bf02245606 (Janssen Research Foundation, 1996).

How the values were obtained:
[1] = target: T1, Alpha-2C adrenergic receptor (Rattus norvegicus, UniProt P22086)
T1 sequence (P22086 whole entry): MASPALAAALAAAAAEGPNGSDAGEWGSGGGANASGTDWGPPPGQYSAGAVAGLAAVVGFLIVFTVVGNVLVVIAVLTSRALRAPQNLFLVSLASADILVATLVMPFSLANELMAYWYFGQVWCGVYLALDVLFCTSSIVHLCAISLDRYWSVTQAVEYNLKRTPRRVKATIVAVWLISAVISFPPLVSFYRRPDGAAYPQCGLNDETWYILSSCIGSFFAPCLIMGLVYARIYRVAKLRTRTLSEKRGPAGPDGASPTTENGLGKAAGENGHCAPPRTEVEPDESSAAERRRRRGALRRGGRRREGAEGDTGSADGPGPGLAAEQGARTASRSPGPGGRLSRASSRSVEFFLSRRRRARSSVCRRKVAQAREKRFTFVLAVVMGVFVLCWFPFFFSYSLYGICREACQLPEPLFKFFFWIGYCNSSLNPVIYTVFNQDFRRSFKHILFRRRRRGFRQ

[2] = target: T2, 5-hydroxytryptamine receptor 1A (Rattus norvegicus, UniProt P19327)
T2 sequence (P19327 whole entry): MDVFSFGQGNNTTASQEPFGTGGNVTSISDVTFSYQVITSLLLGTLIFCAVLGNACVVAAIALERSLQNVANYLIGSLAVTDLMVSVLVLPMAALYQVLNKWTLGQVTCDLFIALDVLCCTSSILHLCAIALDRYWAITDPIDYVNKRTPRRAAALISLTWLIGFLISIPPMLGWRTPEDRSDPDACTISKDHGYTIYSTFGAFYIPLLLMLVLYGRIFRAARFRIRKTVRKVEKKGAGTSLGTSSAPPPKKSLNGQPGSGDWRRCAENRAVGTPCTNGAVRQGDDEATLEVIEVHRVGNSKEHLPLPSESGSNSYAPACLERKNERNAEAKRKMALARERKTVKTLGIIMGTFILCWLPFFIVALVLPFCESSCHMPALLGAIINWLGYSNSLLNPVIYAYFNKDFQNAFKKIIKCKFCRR

| Ki [1] [nM] | SMILES | Ki [2] [nM] |
| --- | --- | --- |
| 17 | Cc1nc2n(c(=O)c1CCN1CCC(c3noc4cc(F)ccc34)CC1)CCCC2O (stereo not drawn) [9-OH-risperidone] | 380 |
| 680 | NC(=O)C1(N2CCCCC2)CCN(CCCC(=O)c2ccc(F)cc2)CC1 [CAS_1893-33-0] | – |
| 3.7 | CN1CC2c3ccccc3Oc3ccc(Cl)cc3C2C1 (stereo not drawn) [NSC_163091] | – |

The remaining lines, values behind:

| SMILES | Ki [1] [nM] | Ki [2] [nM] |
| --- | --- | --- |
| O=C1NCN(c2ccccc2)C12CCN(CCCC(c1ccc(F)cc1)c1ccc(F)cc1)CC2 | 5000 | 110 |
| O=C1NCCN1CCN1CCC(c2cn(-c3ccc(F)cc3)c3ccc(Cl)cc23)CC1 [1-[2-[4-[5-chloro-1-(4-fluorophenyl)-indol-3-yl]-1-piperidyl]ethyl]imidazolidin-2-one] | 1680 | – |
| O=C1NCN(c2ccccc2)C12CCN(CC1COc3ccccc3O1)CC2 (stereo not drawn) [8-(2,3-Dihydro-benzo[1,4]dioxin-2-ylmethyl)-1-phenyl-1,3,8-triaza-spiro[4.5]decan-4-one] | – | 0.84 |
